Here are results for ten compounds from patent US4512994A, “Long-acting theophylline in medicinal form” (priority 1982, dated 1985).

Series [1] in a line: clinical theophylline blood level on 4th day, theophylline alone or with idrocilamide (Tables 3 and 4). The conditions noted are these: inferred from clinical blood levels. The protocol: A series of comparative clinical tests were conducted. Five male adults asthma patients took a simultaneous dose of 200 mg theophylline and 100 mg idocrilamide twice a day orally, at 0800 and 2000 hours. On the 4th day, after establishment of a state of equilibrium, the theophylline blood level in the patients under treatment was determined at various times. The determinations were made by highpressure liquid chromatography (Waters apparatus, Lichrosorb RP 18 adsorbent of Merck, methanol, formamide, monopotassium phosphate solvent. Detection by UV spectrophotometry).
The time in hours (t) after the morning dose is plotted on the x-axis, the time 0 corresponding to the dose of medicine on the 4th day. The theophylline blood concentrations in mg/l (th mg/l) are plotted on the y-axis.

The nature of series [2]: oral toxicity (LD50) in mice. The conditions noted are these: mouse, in vivo, read-out: LD50 orally in mice.
The subject of series [3] is mastocytes. The conditions noted are these: hypersensitivity reactions; cited from earlier work.
For series [4], the system named is phosphodiesterase. The conditions noted are these: cited from earlier work.
For series [5] the following is noted: cited from earlier work.
The nature of series [6]: in vivo. The conditions noted are these: rat, po, 15 mg/kg. The protocol:
Groups of the so-treated animals were killed by carotid section 15', 30', 1 h, 2 h, 3 h, 4 h, 6 h, and 8 h after administration of the theophylline. The blood was collected in herparinized, centrifuged tubes, and the plasma was decanted. The theophylline blood level was determined in plasma samples after extraction by liquid chromatography.

Series [7] concerns pulmonary vital capacity. The conditions noted are these: digestive disorders, nervous troubles, cardiac troubles, neurological symptoms; cited from earlier work.
The test system of series [8] is cyclic AMP. The conditions noted are these: cited from earlier work.
For series [9] the following is noted: cited from earlier work. The source holds these as a separate data set.
The subject of series [10] is bronchial smooth muscles. The conditions noted are these: cited from earlier work.

Broadly, the LD50 is the dose at which mortality reaches 50%. In general, half-life refers to how long it takes for the measured level to halve. The AUC is the area under the concentration-time curve, a measure of exposure. A low value points to less exposure. In general, AUC(0-inf) refers to the area under the concentration-time curve extrapolated to infinity. Higher therefore signals high exposure. Usually Cmax stands for the maximum level reached in the sampled fluid or tissue.

Values joined by “and” are separate entries in the source; they are usually repeats but may differ in a detail not shown here. Identical values can stand only once. Like-named read-outs stand apart in the source and are kept apart here. A value given as a limit tells only on which side of the number the result lay.

As to `O=C(C=Cc1ccccc1)NCCO` [Compound I, N-(2-hydroxyethyl)cinnamamide], the “action mechanism on theophylline metabolism” value in [1] is “interference of idrocilamide on the metabolism of theophylline”. In addition, the 50% lethal dose (LD50) in series [2] came out at 3000 mg/kg.

Turning to `O=C(C=Cc1ccc(Cl)cc1)NCCO` [Compound II, N-(2-hydroxyethyl)-4-chlorocinnamamide], the LD50 in [2] worked out at 1600 mg/kg.

For the compound `CN(CCO)C(=O)C=Cc1ccccc1` [Compound III, N-methyl, N-(2-hydroxyethyl)cinnamamide], the LD50 in [2] came out at 3000 mg/kg.

Take `CC(CO)NC(=O)C=Cc1ccccc1` (stereo not shown) [Compound IV, N-[2-(1-hydroxypropyl)]cinnamamide]: the LD50 in series [2] turned out to be 3200 mg/kg.

Take `CC1(C)OCCN1C(=O)C=Cc1ccccc1` [Compound IX, 3-cinnamoyl-2,2-dimethyloxazolidine]: in series [2], the LD50 is more than 3200 mg/kg.

As for `O=C(C=Cc1ccc(F)cc1)NCCO` [Compound V, N-(2-hydroxyethyl)-4-fluorocinnamamide], the LD50 in series [2] was more than 3200 mg/kg.

On to `CC(=O)c1ccc(C=CC(=O)NCCO)cc1` [Compound VI, N-(2-hydroxyethyl)-4-acetylcinnamamide], for which the median lethal dose (LD50) in [2] stood at 3200 mg/kg.

Turning to `CC1(C)OCCN1C(=O)C=Cc1ccc(Cl)cc1` [Compound VII, 3-(4-chlorocinnamoyl)-2,2-dimethylloxazolidine], in [2], the median lethal dose (LD50) was more than 3200 mg/kg.

For the compound `CC1(C)OCCN1C(=O)C=Cc1ccc(F)cc1` [Compound VIII, 2,2-dimethyl-3-(4-fluorocinnamoyl) oxazolidine], in series [2], the LD50 amounted to 2000 mg/kg.

`Cn1c(=O)c2[nH]cnc2n(C)c1=O` [theophylline, 1,3-dimethylxanthine]: the “inhibiting action on mastocytes” value in series [3] is “partially inhibiting their degranulation”. Besides, the inhibition of phosphodiesterase result in series [4] was “competitive inhibition”. In [5] (in vivo), the metabolism result was “metabolized at the hepatic level to give inactive metabolites eliminated by the kidneys”. For the same compound, the half-life in series [5] (normal adult) is ~6 h and 4 h. Also, the oral absorption entry in [5] is on record as “very good”. In addition, the oral absorption result in series [5] (listed as Theophylline) is “absorbed very well orally”. The rectal absorption entry in series [5] (rectal) was “very irregular”. In series [6], this compound showed an AUC at 8 h of 95100 ng·h/mL, an AUC(0-inf) of 117 µg·h/mL, a Cmax of 20300 ng/mL and a concentration at 0.25 h of 17500 ng/mL. Moreover, in series [6], the concentration at 0.5 h came out at 20300 ng/mL, the concentration at 1 h was 18900 ng/mL, the concentration at 2 h was 16700 ng/mL and the concentration at 3 h is 13900 ng/mL. In [6], the concentration at 4 h is 12000 ng/mL, the concentration at 6 h was 8040 ng/mL, the concentration at 8 h came to 4320 ng/mL and the half-life is 208 min. For the same compound, the “concentration above which intolerance signs can appear” value in series [7] was more than 20 mg/L. In addition, the “tissue increase of cyclic AMP” value in series [8] was “tissue increase of cyclic AMP”. Besides, the solubility in water entry in series [9] was “slightly soluble in water”. Further, the “effect of intrapulmonary administration by aerosol” value in series [10] (aerosol) is “ineffective”. Besides, the bronchodilating action entry in series [10] is listed as “active toward all bronchoconstrictive agents”.
